Reference: patent publication US20220133618A1, “Low Surfactant Personal Care Compositions” (The Procter & Gamble Company, priority 2020, published 2022)

Assays:
[1] = Syringe filter polymer cleaning procedure (syringe method); details: Table 4; controls; Decyl Glucoside 2% starting active before dilution
Procedure: Procedure for Syringe Filter Polymer Cleaning
1) materials used in syringe cleaning procedure: • A. 0.15% Oil Red 0 dyed >95% pure Glyceryl Trioleate oil (See below—Procedure for preparing 0.15% Oil Red 0 dyed Triolein oil (Glyceryl trioleate)) • B. Syringe Filters: 30 mm, 5 um Nylon syringe filters; (Thermo Fischer Scientific Co, Waltham, Mass.: Part #F2500-50) • C. 24 ml Norm-ject luer (slip tip) syringes Ref #4200-00V0 (These are silicone free syringes) • D. Isopropanol (IPA) • E. Polymer Solutions/mixtures—diluted with distilled water to the desired percentage (typically 0.5% for a polymer only solution and 10% for a full formulation unless otherwise noted in the examples). • F. Plastic drain tubing having a diameter to fit over the slip tip of the syringe filter tightly
Syringe Pump Settings • Syringe Diameter: 20 mm (Note: The volume of liquid dispensed by the syringe is based on the diameter of the syringe and diameter setting must be changed if using different sizes of syringes). • Dispensing Volume set point: 5 mls • Cleaning Dispensing Rate: 5 mls/min • IPA Extraction Rate: 2.5 ml/min
• 1. Coat the slip tip side of the syringe filter (see FIG. 5) using a micro pipettor with 48-50 mg of Oil 0 Red dyed Triolein oil by setting the micro-pipettor to a volume of ˜58 ul to compensate for the lower density of the dyed oil. • 2. Slowly fill the pipette tip with oil. […]

[2] = tested on: keratinocytes on de-epidermized dermis (DED); test: TEWL (transepidermal water loss) on organotypic epidermis cultures; format: cell-based, human; details: topical treatment 20 minutes, washed, reading after 24 hours; higher value = worse
Text: TEWL (transepidermal water loss) is a common clinical measure used to compare the mildness of surfactant-based formulations for skin (Rogiers 2001; Berardesca and Maibach 1990; Brink et al. 2019; O'Connor, Ogle, and Odio 2016; Thune et al. 1988). TEWL is considered to provide a relative understanding of individual skin barrier quality in relation to onset of disease, environmental impacts and exposure to topical formulations, such as consumer products (Alexander et al. 2018). […]
De-epithelialized dermis (DED) was prepared by removing fat from the skin sample with a scalpel, cutting the skin into squares measuring 1.25 cm^2, and placing the samples in 1M NaCl plus 10× penicillin/streptomycin. […] The following day, the epidermis was carefully peeled off with forceps and dermal tissue was stored in phosphate-buffered saline (PBS) plus 2× penicillin/streptomycin at 4° C. until ready for use. […]
At day 7 at the air-liquid interface, the cultures were treated topically with full or diluted formulas by cotton swab or by pipetting 6-50 ul, depending on product viscosity. […] Once equilibrated the cultures were placed on the lid of a sterile 150 mm petri dish and TEWL readings were taken using a Delfin Vapometer containing a silicone O-ring adaptor provided by the manufacturer. […]

| SMILES | % Sebum Removed with Syringe Method [1] | TEWL Mean [2] |
| --- | --- | --- |
| CCCCCCCCCCO[C@@H]1O[C@H](CO)[C@@H](O)[C@H](O)[C@H]1O [Sample C3, Decyl Glucoside] | 51% | – |
| CCCCCCCCCCCCOS(=O)(=O)[O-].[Na+] [SLS (10%)] | – | 26.03 |
